Several values for one entry are separate records, joined by “and”; a condition that tells them apart may be missing. Equal entries are not always repeated.
Tests used:
Type in all cases: cell-based, human
22Rv1-CDK7-D97N cells = assay: Growth assay (SRB), 22Rv1 CDK7-D97N knock-in pool; conditions: for % Growth: 22Rv1 CDK7 D99N
Protocol: (§1) To determine the IC50 of drug treatments on growth, cells were seeded in 96-well culture plates. Two days after seeding, the cells were treated with increasing concentrations of drugs and incubated for 4 days. Cell number was determined using the SRB assay (Skehan et al, [1990]), and IC50 values were calculated using non-linear regression curve fitting in GraphPad Prism v10. For all other growth experiments, cells were seeded into 96-well plates, and appropriate drugs were added 2 days after seeding. Cells were then incubated in an IncuCyte Zoom live-cell imager, with cell confluency measured every 6 h. Cell doubling times were determined by non-linear curve fitting (exponential growth equation) in GraphPad Prism v10.
(§2) Alt-R^TM S.p. Cas9 nuclease V3, Alt-R CRISPR-Cas9 crRNA, TracrRNA and the donor templates were obtained from Integrated DNA Technologies. […] Cells were treated with 0.7 µM of Alt-R HDR Enhancer V2 to improve HRD efficiency. Sequences of the CRISPRs in the crRNA and the donor templates are shown in the Reagents and tools table. Donor templates were designed to include non-coding substitutions to aid genome DNA PCR for identifying knock-in events and to facilitate cloning; these substitutions are noted in the Reagents and tools table.

LNCaP-CDK7-D97N cells = assay: Growth assay (SRB), LNCaP CDK7-D97N knock-in; conditions: for % Growth: LNCaP CDK7 D99N
Protocol: as §1, §2

MCF7 cells = assay: Growth assay (SRB), MCF7; conditions: for % Growth: biological reps
Protocol: as §1

LNCaP cells = assay: Growth assay (SRB), LNCaP
Protocol: as §1

MCF7-CDK7-D97N cells = assay: Growth assay (SRB), MCF7 CDK7-D97N knock-in; conditions: for % Growth: MCF7 CDK7 D99N, biological reps
Protocol: as §1, §2

22Rv1-SamR cells = assay: Growth assay (SRB), Samuraciclib-resistant 22Rv1; conditions: for % Growth: 22Rv1 SamR, 4 days, biological reps
Protocol: as §1

22Rv1 cells = assay: Growth assay (SRB), 22Rv1
Protocol: as §1

Question: With `C=CC(=O)Nc1ccc(C(=O)Nc2[nH]nc3c2CN(C(=O)N[C@H](CN(C)C)c2ccccc2)C3(C)C)cc1` [YKL-5-124] as the compound, how does the “Sensitivity in growth assays” value (22Rv1-CDK7-D97N cells; 22Rv1-CDK7-D97N vs parental) read?
Answer: Its value is “remaining sensitive”.

Question: What about the “% Growth” value (22Rv1-CDK7-D97N cells; Log10 Conc. (nM) 0.09) of the same compound?
Answer: Its value is 95.04% and 95.37%.

Question: And the “% Growth” value (22Rv1-CDK7-D97N cells; Log10 Conc. (nM) 0.69)?
Answer: Its value is 93.89% and 97.25%.

Question: What about the “% Growth” value (22Rv1-CDK7-D97N cells; Log10 Conc. (nM) 1.29) of the same compound?
Answer: The value was 85.36% and 88.43%.

Question: And the “% Growth” value (22Rv1-CDK7-D97N cells; Log10 Conc. (nM) 1.89)?
Answer: The value was 88.25% and 90.69%.

Question: And the “% Growth” value (22Rv1-CDK7-D97N cells; Log10 Conc. (nM) 2.49)?
Answer: The value was 93.92% and 88.27%.

Question: And the “% Growth” value (22Rv1-CDK7-D97N cells; Log10 Conc. (nM) 3.10)?
Answer: The value was 65.35% and 66.63%.

Question: What about the “% Growth” value (22Rv1-CDK7-D97N cells; Log10 Conc. (nM) 3.70) of the same compound?
Answer: Its value is 34.13% and 30.83%.

Question: What about the “% Growth” value (22Rv1-CDK7-D97N cells; Log10 Conc. (nM) -0.52) of the same compound?
Answer: Its value is 104.35% and 94.29%.

Question: And the “% Growth” value (22Rv1-CDK7-D97N cells; Log10 Conc. (nM) -1.12)?
Answer: The value was 96.98% and 94.29%.

Question: What about the “% Growth” value (LNCaP-CDK7-D97N cells; Log10 Conc. (nM) 0.09) of the same compound?
Answer: The value was 95.98% and 86.14%.

Question: What about the “% Growth” value (LNCaP-CDK7-D97N cells; Log10 Conc. (nM) 0.69) of the same compound?
Answer: The value was 91.96% and 46.53%.

Question: What about the “% Growth” value (LNCaP-CDK7-D97N cells; Log10 Conc. (nM) -0.52) of the same compound?
Answer: The value was 97.82% and 101.86%.

Question: And the “% Growth” value (LNCaP-CDK7-D97N cells; Log10 Conc. (nM) -1.12)?
Answer: Its value is 92.55% and 85.18%.

Question: What about the “Sensitivity in growth assays” value (LNCaP-CDK7-D97N cells; LNCaP-CDK7-D97N vs parental) of the same compound?
Answer: The value was “remaining sensitive”.

Question: What about the IC50 (MCF7 cells; 4 days, SRB) of the same compound?
Answer: Its IC50 is 5.5 nM.

Question: What about the “% Growth” value (MCF7 cells; Log10 Conc. (nM) 0.09, 4 days) of the same compound?
Answer: The value was 84.50% and 79.80% and 95.09% and 95.13%.

Question: What about the “% Growth” value (MCF7 cells; Log10 Conc. (nM) -0.52, 4 days) of the same compound?
Answer: Its value is 99.55% and 100.47% and 99.34% and 100.40%.

Question: And the “% Growth” value (MCF7 cells; Log10 Conc. (nM) -1.12, 4 days)?
Answer: The value was 92.16% and 94.11% and 96.62% and 97.54%.

Question: What about the “% Growth” value (LNCaP cells; Log10 Conc. (nM) 0.09) of the same compound?
Answer: The value was 110.86% and 92.81%.

Question: And the “% Growth” value (LNCaP cells; Log10 Conc. (nM) 0.69)?
Answer: Its value is 85.55% and 79.81%.

Question: And the “% Growth” value (LNCaP cells; Log10 Conc. (nM) 3.70)?
Answer: The value was -11.67% and -9.39%.

Question: What about the “% Growth” value (LNCaP cells; Log10 Conc. (nM) -0.52) of the same compound?
Answer: The value was 109.97% and 100.05%.

Question: What about the “% Growth” value (LNCaP cells; Log10 Conc. (nM) -1.12) of the same compound?
Answer: The value was 106.79% and 104.82%.

Question: And the “Resistance (Fold)” value (MCF7-CDK7-D97N cells; MCF7-CDK7-D97N vs MCF7 WT)?
Answer: Its value is 1.45 fold.

Question: What about the IC50 (MCF7-CDK7-D97N cells; MCF7-CDK7-D97N, 4 days, SRB) of the same compound?
Answer: The IC50 was 8 nM.

Question: What about the “% Growth” value (MCF7-CDK7-D97N cells; Log10 Conc. (nM) 0.09, 4 days) of the same compound?
Answer: The value was 94.47% and 108.04% and 95.31% and 94.01%.

Question: What about the “% Growth” value (MCF7-CDK7-D97N cells; Log10 Conc. (nM) 0.69, 4 days) of the same compound?
Answer: The value was 69.10% and 46.95% and 78.88% and 82.06%.

Question: And the “% Growth” value (MCF7-CDK7-D97N cells; Log10 Conc. (nM) -0.52, 4 days)?
Answer: The value was 98.82% and 155.20% and 98.59% and 96.08%.

Question: What about the “% Growth” value (MCF7-CDK7-D97N cells; Log10 Conc. (nM) -1.12, 4 days) of the same compound?
Answer: Its value is 96.88% and 112.86% and 97.89% and 98.06%.

Question: What about the “Sensitivity in growth assays” value (22Rv1-SamR cells; 22Rv1-SamR) of the same compound?
Answer: The value was “remained sensitive”.

Question: What about the “Resistance (Fold), fold increase in IC50 of 22Rv1-SamR relative to 22Rv1” value (22Rv1-SamR cells; 22Rv1-SamR vs 22Rv1) of the same compound?
Answer: The value was 2.0 fold.

Question: What about the “% Growth” value (22Rv1-SamR cells; Log10 Conc. (nM) 0.09) of the same compound?
Answer: Its value is 83.75% and 87.25%.

Question: And the “% Growth” value (22Rv1-SamR cells; Log10 Conc. (nM) 0.69)?
Answer: Its value is 68.41% and 67.61%.

Question: What about the “% Growth” value (22Rv1-SamR cells; Log10 Conc. (nM) 1.29) of the same compound?
Answer: The value was 30.25% and 41.41%.

Question: What about the “% Growth” value (22Rv1-SamR cells; Log10 Conc. (nM) 1.89) of the same compound?
Answer: The value was -7.69% and -2.73%.

Question: What about the “% Growth” value (22Rv1-SamR cells; Log10 Conc. (nM) 2.49) of the same compound?
Answer: Its value is -11.43% and -7.53%.

Question: What about the “% Growth” value (22Rv1-SamR cells; Log10 Conc. (nM) 3.10) of the same compound?
Answer: The value was -11.82% and -8.43%.

Question: And the “% Growth” value (22Rv1-SamR cells; Log10 Conc. (nM) 3.70)?
Answer: The value was -15.22% and -10.53%.

Question: And the “% Growth” value (22Rv1-SamR cells; Log10 Conc. (nM) -0.52)?
Answer: The value was 93.15% and 99.90%.

Question: What about the “% Growth” value (22Rv1-SamR cells; Log10 Conc. (nM) -1.12) of the same compound?
Answer: The value was 93.43% and 95.60%.

Question: What about the “% Growth” value (22Rv1 cells; 22Rv1, Log10 Conc. (nM) 0.09) of the same compound?
Answer: The value was 59.88% and 63.28%.

Question: What about the “% Growth” value (22Rv1 cells; 22Rv1, Log10 Conc. (nM) 0.69) of the same compound?
Answer: The value was 24.70% and 25.33%.

Question: What about the “% Growth” value (22Rv1 cells; 22Rv1, Log10 Conc. (nM) 1.29) of the same compound?
Answer: Its value is 14.01% and 10.35%.

Question: And the “% Growth” value (22Rv1 cells; 22Rv1, Log10 Conc. (nM) 1.89)?
Answer: The value was 12.24% and 10.17%.

Question: What about the “% Growth” value (22Rv1 cells; 22Rv1, Log10 Conc. (nM) 2.49) of the same compound?
Answer: Its value is 11.07% and 8.36%.

Question: And the “% Growth” value (22Rv1 cells; 22Rv1, Log10 Conc. (nM) 3.10)?
Answer: The value was 1.88% and 3.47%.

Question: And the “% Growth” value (22Rv1 cells; 22Rv1, Log10 Conc. (nM) 3.70)?
Answer: Its value is 0.13% and -0.45%.

Question: What about the “% Growth” value (22Rv1 cells; 22Rv1, Log10 Conc. (nM) -0.52) of the same compound?
Answer: The value was 83.49% and 90.26%.

Question: What about the “% Growth” value (22Rv1 cells; 22Rv1, Log10 Conc. (nM) -1.12) of the same compound?
Answer: Its value is 94.90% and 93.56%.

Question: What about the “% Growth” value (22Rv1 cells; 22Rv1, Log10 Conc. (nM) 0.09, 4 days, biological reps) of the same compound?
Answer: Its value is 93.20% and 88.05%.

Question: What about the “% Growth” value (22Rv1 cells; 22Rv1, Log10 Conc. (nM) 0.69, 4 days, biological reps) of the same compound?
Answer: The value was 85.45% and 77.80%.

Question: What about the “% Growth” value (22Rv1 cells; 22Rv1, Log10 Conc. (nM) 1.29, 4 days, biological reps) of the same compound?
Answer: The value was 56.44% and 44.90%.

Question: What about the “% Growth” value (22Rv1 cells; 22Rv1, Log10 Conc. (nM) 1.89, 4 days, biological reps) of the same compound?
Answer: The value was 5.80% and -0.07%.

Question: What about the “% Growth” value (22Rv1 cells; 22Rv1, Log10 Conc. (nM) 2.49, 4 days, biological reps) of the same compound?
Answer: The value was -4.12% and -6.31%.

Question: And the “% Growth” value (22Rv1 cells; 22Rv1, Log10 Conc. (nM) 3.10, 4 days, biological reps)?
Answer: Its value is -6.49% and -7.67%.

Question: What about the “% Growth” value (22Rv1 cells; 22Rv1, Log10 Conc. (nM) 3.70, 4 days, biological reps) of the same compound?
Answer: The value was -6.63% and -7.61%.

Question: And the “% Growth” value (22Rv1 cells; 22Rv1, Log10 Conc. (nM) -0.52, 4 days, biological reps)?
Answer: The value was 98.36% and 93.94%.

Question: What about the “% Growth” value (22Rv1 cells; 22Rv1, Log10 Conc. (nM) -1.12, 4 days, biological reps) of the same compound?
Answer: Its value is 96.18% and 94.83%.
